Test results as given in publication PMC6540907, “The nuclear export inhibitor aminoratjadone is a potent effector in extracellular-targeted drug conjugates” (Chemical Science, 2019).

Experiments:
folate receptor-α, FRα = biological target: folate receptor-α, FRα; set-up: method as in ref 31 = [31]; Lu Y. Low P. S. Adv. Drug Delivery Rev. 2012 64 342 352; conditions: read-out: folate affinity of the receptors; cited from earlier work
[1] = set-up: method as in PMID 8761384; conditions: standalone drug; cited from earlier work
CRM1 [2] = biological target: T1, CRM1 (Homo sapiens, UniProt O14980); assay: Streptavidin pull-down from HeLa cell lysate with LC-MS/MS identification; assay type: binding; set-up: endogenous in cells; host or cells: HeLa cells (treated live with biotin conjugate 36, then lysed); conditions: HeLa cells, 100 ng mL–1, 5 h; control additionally incubated with an excess of 1
Protocol: To verify that this activity was indeed CRM1-mediated, HeLa cells were incubated with 36 at a concentration of 100 ng mL^–1 for 5 h and lysed.
The cell lysate was incubated with streptavidin-coupled sepharose beads, and bound proteins were eluted, digested and identified by LC-MS/MS.
Streptavidin-Pull-down with Ratjadone-biotin and identification of exportin by LC-MSMS A chemical pull down was performed to verify binding of ratjadone to Crm1. HeLa cells were treated with ratjadone-biotin, ratjadone or both at 0.1μg/ml final concentration for 5h. Cells were detached by scraping, washed twice in PBS and lysed in MPER-buffer (Thermo Fisher, Waltham, USA) supplemented with complete protease inhibitor (Roche, Mannheim, Germany). After 5min incubation on ice the lysate was centrifuged (20min, 13000rpm, 4°C) and the supernatant was incubated with streptavidin sepharose high performance (GE healthcare, Freiburg, Germany) overnight at 4°C. The next day beads were washed twice with PBS and resuspended in elution buffer (Roth) and heated to 95°C for 10min. 5% were tested on WesternBlot with a biotin-specific antibody.
Figure S12: Gel of α-Streptavidin pulldown experiment: Identification of protein band in the eluat of Biotin-PEG3-16S- […]

CRM1 [3] = biological target: T1, CRM1; assay: Nuclear export inhibition, fluorescent translocation biosensor in recombinant HeLa cells; assay type: cell-based; set-up: This cellular assay uses HeLa cells that express a recombinant fusion protein; endogenous in cells; host or cells: HeLa cells stably expressing the NLS-GST-GFP-RevNES translocation biosensor (HeLaRevBio); conditions: nuclear export inhibition IC50, HeLa cells expressing translocation biosensor, 1 h incubation
nuclear export = tested on: nuclear export; set-up: method as in PMID 20055390, PMID 26833854; conditions: cited from earlier work
KB-3.1 cells = assay: Flow cytometry, fluorescence intensity per cell; assay type: cell-based, human; conditions: KB-3.1, 1 µM, 30 min, 37 °C
Protocol: Analysis of cell labeling with fluorescein-labeled conjugates
All cell lines were maintained as recommended by the American Type Culture Collection in DMEM or RPMI
containing 5% glutamine (Thermo Fisher Scientific, Waltham, USA) supplemented with 10% FBS (Thermo
Fisher Scientific, Waltham, USA). For flow cytrometric analysis cells were detached by trypsin and the
density was adjusted to 2 x 10^6 cells/ml. The cell suspension was incubated with compounds at 1µM final
concentration for 30min at 37°C, followed by two washing steps in PBS. For analysis of fluorescein intensity
a LSRFortessa™ with FACSDiva™ software (BD Biosciences, Heidelberg, Germany) with the 488nm laser in
combination with 525/50nm band pass filter was used. Data was evaluated using FlowJo software
(FLOWJO LLC, Oregon, US).

T1 sequence (O14980 whole entry): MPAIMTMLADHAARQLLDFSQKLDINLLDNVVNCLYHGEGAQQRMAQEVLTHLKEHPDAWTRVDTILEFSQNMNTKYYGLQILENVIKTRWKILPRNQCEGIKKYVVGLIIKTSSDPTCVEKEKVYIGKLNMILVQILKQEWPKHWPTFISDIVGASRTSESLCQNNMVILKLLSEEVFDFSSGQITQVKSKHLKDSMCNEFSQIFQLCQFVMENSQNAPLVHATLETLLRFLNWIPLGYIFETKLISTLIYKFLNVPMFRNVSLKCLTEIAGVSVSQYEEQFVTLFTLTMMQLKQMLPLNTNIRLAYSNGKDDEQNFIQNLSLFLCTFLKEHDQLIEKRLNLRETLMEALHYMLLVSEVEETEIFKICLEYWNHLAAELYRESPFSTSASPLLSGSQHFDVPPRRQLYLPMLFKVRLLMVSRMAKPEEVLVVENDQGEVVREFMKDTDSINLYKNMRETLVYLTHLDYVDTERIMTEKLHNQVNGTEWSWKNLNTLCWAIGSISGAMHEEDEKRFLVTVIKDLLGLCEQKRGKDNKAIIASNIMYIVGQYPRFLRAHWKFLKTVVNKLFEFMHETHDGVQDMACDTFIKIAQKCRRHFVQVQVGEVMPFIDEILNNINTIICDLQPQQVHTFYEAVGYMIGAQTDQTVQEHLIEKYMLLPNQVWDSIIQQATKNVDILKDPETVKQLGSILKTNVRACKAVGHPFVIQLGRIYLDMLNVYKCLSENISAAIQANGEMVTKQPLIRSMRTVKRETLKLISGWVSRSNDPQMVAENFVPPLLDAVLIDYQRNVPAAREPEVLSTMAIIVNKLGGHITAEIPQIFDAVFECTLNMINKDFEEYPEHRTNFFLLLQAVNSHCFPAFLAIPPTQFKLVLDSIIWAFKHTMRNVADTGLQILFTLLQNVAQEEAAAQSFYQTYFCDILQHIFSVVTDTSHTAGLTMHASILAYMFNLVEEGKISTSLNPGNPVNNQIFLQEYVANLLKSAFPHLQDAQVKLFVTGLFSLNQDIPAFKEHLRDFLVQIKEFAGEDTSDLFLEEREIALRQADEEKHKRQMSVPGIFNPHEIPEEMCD

CCC(=C/[C@H](C)C/C=C/C(C)=C/[C@@H](C)C(=O)[C@@H](C)[C@H](O)[C@@H](C)C/C(C)=C/C(=O)O)/C=C/[C@@H]1OC(=O)C=C[C@@H]1C [Compound 5, leptomycin B]
outcome of early clinical trials [1]: failed due to its high systemic toxicity

CC=CC1OC(C(C=CC=C(C)CC(C)C=C(C)C=CC2CC=CC(=O)O2)NC(=O)OCCc2cn(CCOCCOCCOCCNC(=O)CCCCC3SCC4NC(=O)NC43)nn2)CC(O)C1C (stereo not drawn) [Compound 36, biotin-PEG3-16S-aminoratjadone]
CRM1 identified in streptavidin pull-down (CRM1 [2]): clearly identified in this manner and strongly enriched | IC50 (CRM1 [3]): 152 nM

CCC(=C/C(C)C)/C=C/[C@H]1CC=CC(=O)O1 [Compound 8]
concentration at which nuclear export is inhibited (nuclear export): 25 nM

O=C1OC2(c3ccc(O)cc3Oc3cc(O)ccc32)c2ccccc21 [fluorescein]
fluorescence intensity per cell (KB-3.1 cells): did not label the cells
